# Read-outs that look alike come from different tables or passages of the source. Peptide text beside a SMILES is read from it. * marks the point of attachment. Cbz = O=C(OCc1ccccc1)*
# Assays:
# [1] = test system: cyclin D1 protein; assay: Western blot of cyclin D1 with or without MG132 during cell cycle progression, HCT 116 cells; assay type: cell-based, human; settings: MG132 2 hours
# Protocol: (§1) FIG. 3 illustrates that cyclin D1 is destabilized during S phase through the ubiquitin-proteasome pathway in cancers. Panels A and B: Pulse-chase analysis of cyclin D1 protein in NIH 3T3 (Panel A) and HCT 116 (Panel B) cells. When most of the populations were in G1 phase (9 hrs for NIH3T3 and 6 hrs for HCT 116) or in S phase (21 hrs for NIH3T3 and 15 hrs for HCT 116), cells were released from quiescence and then labeled with 35^S-methionine for 1 hour. Subsequently these cells were chased with cold methionine for the indicated times and then lysed. Cyclin D1 was immunoprecipitated and then analyzed with SDS-PAGE. Autoradiography was performed. Levels of metabolically labeled-cyclin D1 were estimated by quantitative scanning using the Quantity One (Bio-Rad) software and blotted on the graph to determine the half-life of cyclin D1. Panel C: illustrates that the turnover of cyclin D1 protein is mediated by the ubiquitin-proteasome pathway. […] Western blot was performed with cyclin D1 and p-actin antibodies. Panel D: Polyubiquitination of cyclin D1 protein. HCT 116 colon cancer cells were transfected with (lane 1-3) or without (lane 4) ubiquitin cDNA and then synchronized to S phase through the sequential manipulation of serum starvation and stimulation. Cells were treated with (lane 3 and 4) or without (lane 1 and 2) 25 μM MG132 for an hour. […]
# [2] = test system: polyubiquitinated cyclin D1; assay: Polyubiquitination of cyclin D1, IP-immunoblot in HA-ubiquitin transfected S phase HCT 116 cells; assay type: cell-based, human
# Protocol: FIG. 3 illustrates that cyclin D1 is destabilized during S phase through the ubiquitin-proteasome pathway in cancers. Panels A and B: Pulse-chase analysis of cyclin D1 protein in NIH 3T3 (Panel A) and HCT 116 (Panel B) cells. When most of the populations were in G1 phase (9 hrs for NIH3T3 and 6 hrs for HCT 116) or in S phase (21 hrs for NIH3T3 and 15 hrs for HCT 116), cells were released from quiescence and then labeled with 35^S-methionine for 1 hour. Subsequently these cells were chased with cold methionine for the indicated times and then lysed. Cyclin D1 was immunoprecipitated and then analyzed with SDS-PAGE. Autoradiography was performed. Levels of metabolically labeled-cyclin D1 were estimated by quantitative scanning using the Quantity One (Bio-Rad) software and blotted on the graph to determine the half-life of cyclin D1. Panel C: illustrates that the turnover of cyclin D1 protein is mediated by the ubiquitin-proteasome pathway. […]
# To confirm that the destabilization of cyclin D1 in the S phase is related to polyubiquitination, HCT 116 colon cancer cells were transfected with (lanes 1-3) or without (lane 4) HA-tagged ubiquitin cDNA and then synchronized to the S phase (FIG. 3, Panel D). […] A group of slower migrating bands was detected by the HA antibody exclusively in the anti-cyclin D1 immunoprecipitates in the presence of ubiquitin (lane 2 and 3). […]
# [3] = test system: cyclin D1 protein; assay: Western blot of cyclin D1 with or without MG132 during cell cycle progression, WI-38 cells; assay type: cell-based, human; settings: MG132 2 hours
# Protocol: as §1
# [4] = test system: cyclin D1 protein; assay: Western blot of cyclin D1 with or without MG132 during cell cycle progression, NIH 3T3 cells; assay type: cell-based, mouse
# Protocol: HCT 116 and NIH 3T3 cells were treated with the proteasome inhibitor MG132 at each time point during cell cycle progression (FIG. 3, Panel C).
# [5] = test system: MAPK (ERK1/2); assay: Western blot after 4-HT treatment, ΔB-Raf:ER^TAM NIH 3T3 cells; assay type: cell-based, mouse; settings: 10 nM 4-HT
# Protocol: (§2) Panel B: Western blot analysis. […] Panel C: Western blot analysis after 4-HT treatment. […] A half-life of cyclin D1 protein was calculated.
# (§3) In order to investigate whether this was due to accelerated turnover of the cyclin D1 protein, the half-life of endogenous expression of cyclin D1 protein (FIG. 8, Panel E) was assessed.
# [6] = test system: cyclin D1 protein; assay: Cyclin D1 expression and half-life after 4-HT in ΔB-Raf:ER^TAM NIH 3T3 cells; assay type: cell-based, mouse
# Protocol: as §2, §3
# [7] = test system: cyclin D1 protein; assay: Pulse-chase analysis of cyclin D1 protein in HCT 116 cells; assay type: cell-based, human; settings: exponentially growing HCT 116; 10 μM U0126 30 minutes
# Protocol: (§4) FIG. 11 illustrates that ERK/MAPK is identified as the major kinase that is responsible for the stability of cyclin D1 protein. Panels A-F: Pulse-chase analysis of cyclin D1 protein in HCT 116 cells after exposure to the MEK inhibitor U0126 (A-C) or the GSK3 inhibitor BIO (D-F). Exponentially growing HCT 116 cells were treated with either DMSO or 10 μM of U0126 (A-C) for 30 minutes, or DMSO or 5 μM of BIO (D-F) for 24 hours. Panels A and D: Cells were pulse-labeled with ^35S-methionine for 1 hour. Subsequently these cells were chased with cold methionine for the indicated times, and then lysed respectively. Cyclin D1 was immunoprecipitated and then analyzed with SDS-PAGE. Autoradiography was performed. Levels of metabolically labeled-cyclin D1 were estimated by quantitative scanning using the Quantity One (Bio-Rad) software and blotted on the graph to determine the half-life of cyclin D1. […]
# FIG. 18 illustrates that knockdown of FBXW8, or its partner CUL1 or CUL7 expression through siRNA stabilizes cyclin D1 expression in HCT 116 colon cancer cells. […] Cyclin D1 was immunoprecipitated and then analyzed with SDS-PAGE. Levels of metabolically labeled-cyclin D1 were estimated by quantitative scanning using the Quantity One software (Bio-Rad) and blotted on the graph to determine the half-life of cyclin D1 (D).
# Pulse-Chase Analysis. […] Cyclin D1 was immunoprecipitated and then analyzed with SDS-PAGE. […]
# [8] = test system: cyclin D1 protein; settings: HA-WT cyclin D1 SW480 cells; U0126 24 hours, then CHX, chased 3 hours
# Protocol: FIG. 8 illustrates that MAPK regulates stability and relocalization of cyclin D1 protein. Panels A and B: Half-life analysis of HA-CD1 WT after exposure to U0126. Panel A: Exponentially growing HA-WT cyclin D1 SW480 cells were exposed to U0126 for 24 hours and subsequently treated with CHX and chased for 3 hours. Cells were harvested at different times and protein blot was performed (upper panel). Cyclin D1 expression was quantified and the half-life was calculated respectively. Panel B: Western blot analysis.
# Immunoblotting Analysis. […] NE-PER nuclear and cytoplasmic extraction reagents (Pierce) were used for nuclear and cytoplasmic fractionation. […] Western blots were developed by enhanced chemiluminescence (Amersham or Upstate). […] Intensities of bands were quantified using Gel Doc 600 and Quantity One software (BioRad).
# Exponentially growing HA-WT cyclin D1 SW480 cells were exposed to U0126 for 24 hours and subsequently treated with CHX and chased for 3 hours. […] Cyclin D1 expression was quantified and the half-life was calculated (FIG. 8, Panel A bottom graph).
# [9] = test system: cyclin D1 protein (Thr286 phosphorylation); assay: Western blot of cyclin D1 and p-Thr286 cyclin D1 in HA-CD1 SW480 cells treated with kinase inhibitors; assay type: cell-based, human
# Protocol: Immunoblot analysis was performed. […] Asterisks indicate endogenous cyclin D1 expression. Panel B: Western blot analysis with fractionated nuclear proteins. […] Cell-cycle distribution was shown as bar graphs. Nuclear proteins were fractionated at indicated time points. […] Levels of total and phosphorylated cyclin D1 were determined.
# (§5) Immunoblotting Analysis. […] SDS-PAGE was described previously (Tetsu and McCormick, 2003).
# To identify the kinase responsible for cyclin D1 Thr286 phosphorylation, small molecule inhibitors of GSK3β, CDK4, and MEK were used to determine whether they were able to alter the phosphorylation and stability of ectopically expressed WT cyclin D1 protein in cultured cells (FIG. 5, Panels C and D). Ectopically expressed WT cyclin D1 protein was used to assess the stability of cyclin D1 protein. The endogenous expression was not assessed because transcription of cyclin D1 is regulated by the Ras/MAPK signaling. Therefore, endogenous expression of cyclin D1 is unable to be detected following inhibition of MAPK activities through the MEK/MAPK inhibitors or serum starvation (Tetsu et al., 2003. Cancer Cell. 3, 233-45).
# [10] = test system: MEK/MAPK; assay: Western blot of phosphorylated ERK (pERK) in HCT 116 cells; assay type: cell-based, human
# Protocol: as §4, with “D1. Panels B and E: Western blot analysis. The membrane was blotted with a cyclin D1 Thr286 phosphorylation specific (pThr286), total cyclin D1, a phosphorylation specific ERK, and total ERK antibodies (B), or a pThr286, cyclin D1, a GSKα/β phosphorylation specific, and GSK3β antibodies (E). Panels C and F: Cell cycle distributions were shown.” for “D1.”
# [11] = test system: MEK/MAPK
# Protocol: Immunoblot analysis was performed. […] Panels C and D: HA-WT CD1 (D) or Panel E: HA-CD1 T286A ectopically expressing SW480 cells were treated with highly specific small molecule inhibitors for GSK3β CDK4 and MEK. LiCl and BIO, AG12275, and U0126 were used for GSK, CDK4 and MEK/MAPK inhibitions respectively. Twenty-four hours after the treatment, cells were harvested and western-blot analyses were performed with a cyclin D1 and the p-Thr286 cyclin D1 antibodies. The phosphorylated cyclin D1 expression was magnified and normalized to its total (phosphorylated plus non-phosphorylated protein) expression and shown in the graphs in Panel C. Inhibition of the kinase activities by drugs was assessed using phosphorylation-specific antibodies for GSK3α/β, Rb and ERK1/2 on the same membrane respectively. […] HA-WT CD1 SW480 cells were treated with combining U0126 with LiCl.
# After 24 hours of treatment with these highly specific small molecule inhibitors, expression levels of cyclin D1 and its phosphorylated form were analyzed (FIG. 5, Panel C). Levels of phosphorylated cyclin D1 were estimated by quantitative scanning with Quantity One (Bio Rad) software and were normalized to levels of total cyclin D1 protein (FIG. 5, Panel C bottom graphs).
# Cells were next treated with the MEK inhibitor U0126.
# [12] = test system: HCT 116 colon cancer cells; assay: Flow-cytometric cell cycle analysis, HCT 116 cells; assay type: cell-based, human; settings: U0126 30 minutes
# Protocol: Cell cycle analysis was carried out as described previously (Tetsu et al. (1999) Nature 398: 422-6; Tetsu et al. (2003) Cancer Cell 3: 233-45.
# [13] = test system: cyclin D1 / E3 ligase FBXW8; settings: HCT 116 transfected with FBXW8, cyclin D1 and CDK4; 10 μM U0126 30 minutes
# Protocol: Panel D: Immunoprecipitated-immunoblotting analysis. […] Panels D and E: Exponentially growing HCT 116 colon cancer cells were transiently transfected with Flag epitope-tagged FBXW8 DNA plasmid together with HA-tagged cyclin D1 and CDK4 expression vectors. Twenty-four hours later cells were treated with DMSO (−) or 10 μM of U0126 (+) for 30 minutes and then harvested. Cell lysates were immunoprecipitated with either a Flag (FBXW8) antibody or a control IgG and immunoblotted with cyclin D1, pThr286, and Flag (FBXW8) antibodies (left panel). Western blot for input controls (lysate) were provided (right panel).
# Immunoprecipitation and Immunoblotting Analysis. […] Following antibodies were used for immunoprecipitation; Flag (M2 Agarose-conjugated, Sigma), cyclin D1 (A-12, Agarose-conjugated, Santa Cruz), CDK4 (H-303 or C-22 Agarose-conjugated, Santa Cruz), CDK6 (C-21, Santa Cruz), FLA (M2 Agarose-conjugated, Sigma), and HA (Y-11 Agarose-conjugated, Santa Cruz). Immunoblotting was performed using antibodies described above.
# FBXW8 DNA plasmid together with cyclin D1 and CDK4 expression vectors were transiently transfected in exponentially growing HCT 116 colon cancer cells. After 24 hours, cells were treated with U0126 to inhibit MEK/MAPK signaling for 30 minutes. Subsequently cells were collected and an immunoprecipitated-immunoblotting analysis was performed (FIG. 12, Panels D and E).
# [14] = test system: cyclin D1 protein (Thr286 phosphorylation); assay: Western blot of total cyclin D1 and pThr286 in HCT 116 cells after U0126 or GSK3 inhibitor; assay type: cell-based, human
# Protocol: FIG. 11 illustrates that ERK/MAPK is identified as the major kinase that is responsible for the stability of cyclin D1 protein. Panels A-F: Pulse-chase analysis of cyclin D1 protein in HCT 116 cells after exposure to the MEK inhibitor U0126 (A-C) or the GSK3 inhibitor BIO (D-F). Exponentially growing HCT 116 cells were treated with either DMSO or 10 μM of U0126 (A-C) for 30 minutes, or DMSO or 5 μM of BIO (D-F) for 24 hours. Panels A and D: Cells were pulse-labeled with ^35S-methionine for 1 hour. Subsequently these cells were chased with cold methionine for the indicated times, and then lysed respectively. Cyclin D1 was immunoprecipitated and then analyzed with SDS-PAGE. Autoradiography was performed. Levels of metabolically labeled-cyclin D1 were estimated by quantitative scanning using the Quantity One (Bio-Rad) software and blotted on the graph to determine the half-life of cyclin D1. Panels B and E: Western blot analysis. The membrane was blotted with a cyclin D1 Thr286 phosphorylation specific (pThr286), total cyclin D1, a phosphorylation specific ERK, and total ERK antibodies (B), or a pThr286, cyclin D1, a GSKα/β phosphorylation specific, and GSK3β antibodies (E). Panels C and F: Cell cycle distributions were shown. Panel G: Western blot analysis following transfection of various forms of HA-tagged cyclin D1 expression vectors in both NIH 3T3 mouse fibroblast (left) and HCT 116 colon cancer (right) cells. In lane 5 and 10, cells were treated with 5 μM of BIO for further 24 hours following transfection of the ΔD CD1 mutant.
# as §5
# To determine the contribution of ERK/MAPK to the stability of cyclin D1 in cancer cells, MAPK activity was inhibited with the MEK inhibitor U0126 (Favata et al., 1998. J Bio Chem. 273, 18623-32; Davies et al., 2000. Biochem J. 351, 95-105). Exponentially growing HCT 116 colon cancer cells were treated with U0126 for 30 minutes (FIG. 11, Panels A-C).
# In contrast, no effect on phosphorylation status and stability of cyclin D1 protein through inhibition of GSK3α/β ([…], Panels D-F) were detected. […] Cycling HCT 116 colon cancer cells were treated with BIO for 24 hours (FIG. 11, Panels D-F). A phosphorylation specific antibody to GSK3α and β was used to measure their endogenous activities because phosphorylations of GSK3α at Tyr279 and GSK3β at Tyr216 are intramolecular autophosphorylation events in the cells. Thus, phosphorylation status reflects their kinase activities (Cole et al., 2004. Biochem J. 377, 249-55).
# [15] = test system: GSK3α/β; assay: Phosphorylation-specific blot for GSK3α/β, SW480 cells; assay type: cell-based, human; settings: 24 hours of treatment
# [16] = HA-WT CD1 SW480 cells, U0126 24 hours
# [17] = HCT 116 transfected with FBXW8, cyclin D1 and CDK4, 10 μM U0126 30 minutes
# [18] = exponentially growing HCT 116, U0126 30 minutes
compound,measurement,setting,value
CC(C)C[C@@H](C=O)NC(=O)[C@H](CC(C)C)NC(=O)[C@H](CC(C)C)NC(=O)OCc1ccccc1 [MG132] (Cbz-Leu-Leu-Leu-aldehyde),cyclin D1 protein accumulation during G1 phase,[1],no significant accumulation
same,cyclin D1 protein accumulation in S phase,[1],accumulated significantly
same,reduced mobility (polyubiquitinated cyclin D1) bands,[2]; 25 μM MG132 for an hour,enhanced further
same,"cyclin D1 protein accumulation, G1 versus S phase",[3],no remarkable different
same,"cyclin D1 protein accumulation, G1 versus S phase",[4],no difference between the G1 and S phase
4-hydroxy-tamoxifen [4-HT],MAPK activation,[5],MAPK activation
same,half-life of cyclin D1 protein (T1/2),"[6]; exponentially growing cells, 10 nM 4-HT, then CHX, chased 3 hours",20.6 min
same,cyclin D1 expression in S phase,[6]; serum-stimulated from quiescence in the presence of 4-HT,dramatic reduction
N#CC(=C(/N)Sc1ccccc1N)/C(C#N)=C(\N)Sc1ccccc1N [U0126],half-life of cyclin D1 protein,[7],54.6 min
same,half-life of cyclin D1 protein (T1/2),[8],60.3 min
same,ectopic expression of cyclin D1 T286A protein,"[9]; HA-CD1 T286A SW480 cells, U0126",did not accumulate
same,cyclin D1 expression (ectopic HA-WT),[9]; [16],dramatic induction
same,ratio of phosphorylated cyclin D1 at Thr286 to total cyclin D1,[9]; [16],significant reduction
same,MAPK activities (pERK),[10]; [17],significantly inhibited
same,phosphorylated form of ERK (pERK),[10]; [18],significantly depleted
same,MAPK activity,"[11]; HA-WT cyclin D1 SW480 cells, U0126 24 hours (FIG. 8 Panel B)",completely inhibited
same,phosphorylated ERK,"[11]; SW480 cells, 24 hours after exposure",disappeared
same,cell cycle profile,[12],without affecting
same,association of cyclin D1 with the E3 ligase FBXW8,[13],significant decrease
same,phosphorylation status of cyclin D1 at Thr286 (pThr286),[14]; [17],significantly inhibited
same,level of total cyclin D1,[14]; [18],not changed
same,phosphorylation of cyclin D1 at Thr286 (pThr286),[14]; [18],dramatic reduction
CCC(=C/[C@H](C)C/C=C/C(C)=C/[C@@H](C)C(=O)[C@@H](C)[C@H](O)[C@@H](C)C/C(C)=C/C(=O)O)/C=C/[C@@H]1OC(=O)C=C[C@@H]1C [Leptomycin B],polyubiquitinated cyclin D1 bands in the nucleus,"[2]; LMB 3 hours, then MG132 for an hour, nuclear fraction",did not enhance these bands significantly
[Cl-].[Li+] [LiCl],total cyclin D1 expression and its phosphorylated protein,"[9]; HA-WT CD1 SW480 cells, 24 hours of treatment",no significant difference
same,effect of adding LiCl to U0126 on cyclin D1,"[9]; HA-WT cyclin D1 SW480 cells, U0126 combined with LiCl",little enhancement
same,phosphorylated forms of GSK3α/β,[15],disappeared

# — patent US20070026431A1, “Modulation of MAPK-mediated phosphorylation and/or FBXW8-mediated ubiquitinylation of cyclin D1 in modulation of cellular proliferation” (priority 2005, published 2007)
